Assay results as given in PubChem BioAssay (NCI).
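GI50 = concentration required for 50% inhibition of growth. At the TGI there is no net growth.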

Tests used:
Assay in all cases: NCI tumour cell line growth inhibition, 384-well format
NCI-H322M lung = tested on: NCI-H322M lung
SK-OV-3 ovarian = tested on: SK-OV-3 ovarian
TK-10 renal = tested on: TK-10 renal
RPMI-8226 leukemia = tested on: RPMI-8226 leukemia
U251 glioblastoma = tested on: U251 glioblastoma
RXF 393 renal = tested on: RXF 393 renal
OVCAR-8 ovarian = tested on: OVCAR-8 ovarian
MCF7 breast = tested on: MCF7 breast
A498 renal = tested on: A498 renal
NCI-H226 lung = tested on: NCI-H226 lung
T-47D breast = tested on: T-47D breast
NCI-H522 lung = tested on: NCI-H522 lung
KM12 colon = tested on: KM12 colon
HCT-15 colon = tested on: HCT-15 colon
HCT-116 colon = tested on: HCT-116 colon
BT-549 breast = tested on: BT-549 breast
NCI-H23 lung = tested on: NCI-H23 lung
PC-3 prostate = tested on: PC-3 prostate
CAKI-1 renal = tested on: CAKI-1 renal
SNB-75 CNS = tested on: SNB-75 CNS
SW-620 colon = tested on: SW-620 colon
EKVX NSCLC = tested on: EKVX NSCLC
MOLT-4 leukemia = tested on: MOLT-4 leukemia
K-562 leukemia = tested on: K-562 leukemia
SR leukemia = tested on: SR leukemia
SK-MEL-2 melanoma = tested on: SK-MEL-2 melanoma
CCRF-CEM leukemia = tested on: CCRF-CEM leukemia
SF-295 CNS = tested on: SF-295 CNS
OVCAR-3 ovarian = tested on: OVCAR-3 ovarian
SNB-19 CNS = tested on: SNB-19 CNS
MDA-MB-435 melanoma = tested on: MDA-MB-435 melanoma
UACC-62 melanoma = tested on: UACC-62 melanoma
HOP-92 NSCLC = tested on: HOP-92 NSCLC
SK-MEL-5 melanoma = tested on: SK-MEL-5 melanoma
OVCAR-4 ovarian = tested on: OVCAR-4 ovarian
MDA-MB-231 breast = tested on: MDA-MB-231 breast
786-0 renal = tested on: 786-0 renal
HT29 colon = tested on: HT29 colon
NCI/ADR-RES ovarian = tested on: NCI/ADR-RES ovarian
SF-539 CNS = tested on: SF-539 CNS
DU-145 prostate = tested on: DU-145 prostate
UO-31 renal = tested on: UO-31 renal
HCC-2998 colon = tested on: HCC-2998 colon
A549 NSCLC = tested on: A549 NSCLC
SF-268 CNS = tested on: SF-268 CNS
SK-MEL-28 melanoma = tested on: SK-MEL-28 melanoma
MALME-3M melanoma = tested on: MALME-3M melanoma

Structure (SMILES): Cn1cc(-c2cc3c(N4CCN(c5ncc([C@@](C)(N)c6ccc(F)cc6)cn5)CC4)ncnn3c2)cn1
- GI50 (NCI-H322M lung): 6.68 µM
- TGI (NCI-H322M lung): 21.5 µM
- GI50 (SK-OV-3 ovarian): 7.9 µM
- TGI (SK-OV-3 ovarian): 52.7 µM
- GI50 (TK-10 renal): 7.29 µM
- TGI (TK-10 renal): 48.2 µM
- GI50 (RPMI-8226 leukemia): 1590 nM
- TGI (RPMI-8226 leukemia): 3210 nM
- GI50 (U251 glioblastoma): 3540 nM
- TGI (U251 glioblastoma): 25.1 µM
- GI50 (RXF 393 renal): 1030 nM
- TGI (RXF 393 renal): 3020 nM
- GI50 (OVCAR-8 ovarian): 4070 nM
- TGI (OVCAR-8 ovarian): > 50800 nM
- GI50 (MCF7 breast): 2310 nM
- TGI (MCF7 breast): 8.7 µM
- GI50 (A498 renal): 3120 nM
- TGI (A498 renal): 9.79 µM
- GI50 (NCI-H226 lung): 3510 nM
- TGI (NCI-H226 lung): 28.2 µM
- GI50 (T-47D breast): 1490 nM
- TGI (T-47D breast): 6.16 µM
- GI50 (NCI-H522 lung): 2410 nM
- TGI (NCI-H522 lung): 23.3 µM
- GI50 (KM12 colon): 4.11 µM
- TGI (KM12 colon): 28.1 µM
- GI50 (HCT-15 colon): 2970 nM
- TGI (HCT-15 colon): 20.2 µM
- GI50 (HCT-116 colon): 3390 nM
- TGI (HCT-116 colon): 12.3 µM
- GI50 (BT-549 breast): 2520 nM
- TGI (BT-549 breast): 7.85 µM
- GI50 (NCI-H23 lung): 2230 nM
- TGI (NCI-H23 lung): 14.2 µM
- GI50 (PC-3 prostate): 2860 nM
- TGI (PC-3 prostate): 13.9 µM
- GI50 (CAKI-1 renal): 3710 nM
- TGI (CAKI-1 renal): 17.6 µM
- GI50 (SNB-75 CNS): 2160 nM
- TGI (SNB-75 CNS): 7.03 µM
- GI50 (SW-620 colon): 2970 nM
- TGI (SW-620 colon): 11.5 µM
- GI50 (EKVX NSCLC): 2970 nM
- TGI (EKVX NSCLC): 31.6 µM
- GI50 (MOLT-4 leukemia): 1380 nM
- TGI (MOLT-4 leukemia): 2730 nM
- GI50 (K-562 leukemia): 1120 nM
- TGI (K-562 leukemia): 2790 nM
- GI50 (SR leukemia): 1580 nM
- TGI (SR leukemia): 3020 nM
- GI50 (SK-MEL-2 melanoma): 3840 nM
- TGI (SK-MEL-2 melanoma): 16.8 µM
- GI50 (CCRF-CEM leukemia): 2780 nM
- TGI (CCRF-CEM leukemia): 10.2 µM
- GI50 (SF-295 CNS): 3.72 µM
- TGI (SF-295 CNS): 19.9 µM
- GI50 (OVCAR-3 ovarian): 6.11 µM
- TGI (OVCAR-3 ovarian): 18 µM
- GI50 (SNB-19 CNS): 5.93 µM
- TGI (SNB-19 CNS): 24.4 µM
- GI50 (MDA-MB-435 melanoma): 7.13 µM
- TGI (MDA-MB-435 melanoma): 27 µM
- GI50 (UACC-62 melanoma): 4.42 µM
- TGI (UACC-62 melanoma): 17.8 µM
- GI50 (HOP-92 NSCLC): 2660 nM
- TGI (HOP-92 NSCLC): 10.2 µM
- GI50 (SK-MEL-5 melanoma): 1850 nM
- TGI (SK-MEL-5 melanoma): 3.98 µM
- GI50 (OVCAR-4 ovarian): 2960 nM
- TGI (OVCAR-4 ovarian): 12.2 µM
- GI50 (MDA-MB-231 breast): 3470 nM
- TGI (MDA-MB-231 breast): > 35.4 µM
- GI50 ([…]-0 renal): 1760 nM
- TGI (786-0 renal): 3370 nM
- GI50 (HT29 colon): 2650 nM
- TGI (HT29 colon): > 26200 nM
- GI50 (NCI/ADR-RES ovarian): 3190 nM
- TGI (NCI/ADR-RES ovarian): 17.9 µM
- GI50 (SF-539 CNS): 2170 nM
- TGI (SF-539 CNS): 12.2 µM
- GI50 (DU-145 prostate): 5.67 µM
- TGI (DU-145 prostate): > 45100 nM
- GI50 (UO-31 renal): 3600 nM
- TGI (UO-31 renal): 14.7 µM
- GI50 (HCC-2998 colon): 2150 nM
- TGI (HCC-2998 colon): 3820 nM
- GI50 (A549 NSCLC): 4210 nM
- TGI (A549 NSCLC): 36.5 µM
- GI50 (SF-268 CNS): 7.57 µM
- TGI (SF-268 CNS): 38.3 µM
- GI50 (SK-MEL-28 melanoma): 6.9 µM
- TGI (SK-MEL-28 melanoma): 19.7 µM
- GI50 (MALME-3M melanoma): 2460 nM
- TGI (MALME-3M melanoma): 5.79 µM

Structure (SMILES): C=CC(=O)Nc1cc(Nc2nccc(-c3cn(C)c4ccccc34)n2)c(OC)cc1N(C)CCN(C)C
- GI50 (NCI-H322M lung): 0.179 µM
- TGI (NCI-H322M lung): 1.12 µM
- GI50 (SK-OV-3 ovarian): 1.74 µM
- TGI (SK-OV-3 ovarian): 5.73 µM
- GI50 (TK-10 renal): 0.317 µM
- TGI (TK-10 renal): 1.77 µM
- GI50 (RPMI-8226 leukemia): 980 nM
- TGI (RPMI-8226 leukemia): 2230 nM
- GI50 (U251 glioblastoma): 1800 nM
- TGI (U251 glioblastoma): 3.25 µM
- GI50 (RXF 393 renal): 806 nM
- TGI (RXF 393 renal): 2150 nM
- GI50 (OVCAR-8 ovarian): 1420 nM
- TGI (OVCAR-8 ovarian): 2760 nM
- GI50 (MCF7 breast): 1180 nM
- TGI (MCF7 breast): 2.58 µM
- GI50 (A498 renal): 1120 nM
- TGI (A498 renal): 2.53 µM
- GI50 (NCI-H226 lung): 863 nM
- TGI (NCI-H226 lung): 2.2 µM
- GI50 (T-47D breast): 957 nM
- TGI (T-47D breast): 2.38 µM
- GI50 (NCI-H522 lung): 49.5 nM
- TGI (NCI-H522 lung): 0.843 µM
- GI50 (KM12 colon): 2.56 µM
- TGI (KM12 colon): 5.72 µM
- GI50 (HCT-15 colon): 1250 nM
- TGI (HCT-15 colon): 2.6 µM
- GI50 (HCT-116 colon): 1610 nM
- TGI (HCT-116 colon): 3.02 µM
- GI50 (BT-549 breast): 1330 nM
- TGI (BT-549 breast): 2.62 µM
- GI50 (NCI-H23 lung): 1870 nM
- TGI (NCI-H23 lung): 3.67 µM
- GI50 (PC-3 prostate): 1610 nM
- TGI (PC-3 prostate): 3.09 µM
- GI50 (CAKI-1 renal): 703 nM
- TGI (CAKI-1 renal): 2.08 µM
- GI50 (SNB-75 CNS): 2710 nM
- TGI (SNB-75 CNS): 6.41 µM
- GI50 (SW-620 colon): 1760 nM
- TGI (SW-620 colon): 3.18 µM
- GI50 (EKVX NSCLC): 617 nM
- TGI (EKVX NSCLC): 2.17 µM
- GI50 (MOLT-4 leukemia): 921 nM
- TGI (MOLT-4 leukemia): 2150 nM
- GI50 (K-562 leukemia): 1160 nM
- TGI (K-562 leukemia): 2390 nM
- GI50 (SR leukemia): 602 nM
- TGI (SR leukemia): 1290 nM
- GI50 (SK-MEL-2 melanoma): 354 nM
- TGI (SK-MEL-2 melanoma): 1.2 µM
- GI50 (CCRF-CEM leukemia): 1390 nM
- TGI (CCRF-CEM leukemia): 2.69 µM
- GI50 (SF-295 CNS): 2.62 µM
- TGI (SF-295 CNS): 6.33 µM
- GI50 (OVCAR-3 ovarian): 1.13 µM
- TGI (OVCAR-3 ovarian): 2.46 µM
- GI50 (SNB-19 CNS): 3.02 µM
- TGI (SNB-19 CNS): 8.81 µM
- GI50 (MDA-MB-435 melanoma): 2 µM
- TGI (MDA-MB-435 melanoma): 3.55 µM
- GI50 (UACC-62 melanoma): 1.64 µM
- TGI (UACC-62 melanoma): 3.02 µM
- GI50 (HOP-92 NSCLC): 1150 nM
- TGI (HOP-92 NSCLC): 2.38 µM
- GI50 (SK-MEL-5 melanoma): 1220 nM
- TGI (SK-MEL-5 melanoma): 2.23 µM
- GI50 (OVCAR-4 ovarian): 2020 nM
- TGI (OVCAR-4 ovarian): 3.54 µM
- GI50 (MDA-MB-231 breast): 1790 nM
- TGI (MDA-MB-231 breast): 3.21 µM
- GI50 ([…]-0 renal): 1310 nM
- TGI (786-0 renal): 2600 nM
- GI50 (HT29 colon): 1610 nM
- TGI (HT29 colon): 2990 nM
- GI50 (NCI/ADR-RES ovarian): 1130 nM
- TGI (NCI/ADR-RES ovarian): 2.37 µM
- GI50 (SF-539 CNS): 1440 nM
- TGI (SF-539 CNS): 2.76 µM
- GI50 (DU-145 prostate): 1.14 µM
- TGI (DU-145 prostate): 2610 nM
- GI50 (UO-31 renal): 746 nM
- TGI (UO-31 renal): 2.12 µM
- GI50 (HCC-2998 colon): 767 nM
- TGI (HCC-2998 colon): 2000 nM
- GI50 (A549 NSCLC): 1340 nM
- TGI (A549 NSCLC): 3.59 µM
- GI50 (SF-268 CNS): 1.49 µM
- TGI (SF-268 CNS): 3.23 µM
- GI50 (SK-MEL-28 melanoma): 1.66 µM
- TGI (SK-MEL-28 melanoma): 3.04 µM
- GI50 (MALME-3M melanoma): 1150 nM
- TGI (MALME-3M melanoma): 2.54 µM
